Experimental data from US9468213B2, “Herbicide formulation” (Syngenta Crop Protection LLC, priority 2008, dated 2016).

Key:
[1] = Comparative HPPD stability: decomposition of mesotrione in the formulation acidified by various acids; type: physicochemical
Method: The final formulation is prepared by 134.4 grams of the S-metolachlor CS with 22.9 grams of water and under agitation adding 15.2 grams of the mesotrione millbase. This is followed by the addition of 152.7 grams of the Potassium Glyphosate concentrate and then 17.5 grams of the Rhodopol 23 pregel of the previous example. […]

[2] = Stability of mesotrione in chloroacetamides (Example 6, FIG. 1 and FIG. 2); type: physicochemical; settings: in chloroacetamides (S-MOC=S-metolachlor)
Method: Experiments were conducted to look at the stability of mesotrione in chloroacetamides.

Which results are given for `CS(=O)(=O)c1ccc(C(=O)C2C(=O)CCCC2=O)c([N+](=O)[O-])c1` [Mesotrione, 2-(2′-nitro-4′-methylsulphonylbenzoyl)-1,3-cyclohexanedione]?
Percentage Decomposition of Mesotrione ([1]; Gluconic acid, 38 C., 1 MONTH): 4.30%; Percentage Decomposition of Mesotrione ([1]; Gluconic acid, 38 C., 1 WEEK): 1.59%; Percentage Decomposition of Mesotrione ([1]; Gluconic acid, 38 C., 2 MONTHS): 7.42%; Percentage Decomposition of Mesotrione ([1]; Gluconic acid, 38 C., 2 WEEKS): 1.77%; Percentage Decomposition of Mesotrione ([1]; Gluconic acid, 38 C., 3 MONTHS): 11.23%; Percentage Decomposition of Mesotrione ([1]; Gluconic acid, 38 C., 3 WEEKS): 3.00%; Percentage Decomposition of Mesotrione ([1]; Gluconic acid, 45 C., 1 MONTH): 10.22%; Percentage Decomposition of Mesotrione ([1]; Gluconic acid, 45 C., 1 WEEK): 1.75%; Percentage Decomposition of Mesotrione ([1]; Gluconic acid, 45 C., 2 MONTHS): 23.39%; Percentage Decomposition of Mesotrione ([1]; Gluconic acid, 45 C., 2 WEEKS): 4.91%; Percentage Decomposition of Mesotrione ([1]; Gluconic acid, 45 C., 3 MONTHS): 35.81%; Percentage Decomposition of Mesotrione ([1]; Gluconic acid, 45 C., 3 WEEKS): 6.77%; Percentage Decomposition of Mesotrione ([1]; Gluconic acid, 50 C., 1 MONTH): 26.24%; Percentage Decomposition of Mesotrione ([1]; Gluconic acid, 50 C., 1 WEEK): 5.91%; Percentage Decomposition of Mesotrione ([1]; Gluconic acid, 50 C., 2 MONTHS): 54.80%; Percentage Decomposition of Mesotrione ([1]; Gluconic acid, 50 C., 2 WEEKS): 11.61%; Percentage Decomposition of Mesotrione ([1]; Gluconic acid, 50 C., 3 DAYS): 3.26%; Percentage Decomposition of Mesotrione ([1]; Gluconic acid, 50 C., 3 MONTHS): 73.08%; Percentage Decomposition of Mesotrione ([1]; Gluconic acid, 50 C., 3 WEEKS): 17.40%; Percentage Decomposition of Mesotrione ([1]; Gluconic acid, −18 C., 6 MONTHS): −0.18%; Percentage Decomposition of Mesotrione ([1]; No acid, 38 C., 1 MONTH): 17.27%; Percentage Decomposition of Mesotrione ([1]; No acid, 38 C., 1 WEEK): 4.63%; Percentage Decomposition of Mesotrione ([1]; No acid, 38 C., 2 MONTHS): 25.52%; Percentage Decomposition of Mesotrione ([1]; No acid, 38 C., 2 WEEKS): 9.97%; Percentage Decomposition of Mesotrione ([1]; No acid, 38 C., 3 MONTHS): 31.02%; Percentage Decomposition of Mesotrione ([1]; No acid, 38 C., 3 WEEKS): 13.05%; Percentage Decomposition of Mesotrione ([1]; No acid, 45 C., 1 MONTH): 32.01%; Percentage Decomposition of Mesotrione ([1]; No acid, 45 C., 1 WEEK): 11.97%; Percentage Decomposition of Mesotrione ([1]; No acid, 45 C., 2 MONTHS): 49.76%; Percentage Decomposition of Mesotrione ([1]; No acid, 45 C., 2 WEEKS): 19.71%; Percentage Decomposition of Mesotrione ([1]; No acid, 45 C., 3 MONTHS): 62.57%; Percentage Decomposition of Mesotrione ([1]; No acid, 45 C., 3 WEEKS): 25.71%; Percentage Decomposition of Mesotrione ([1]; No acid, 50 C., 1 MONTH): 53.82%; Percentage Decomposition of Mesotrione ([1]; No acid, 50 C., 1 WEEK): 20.39%; Percentage Decomposition of Mesotrione ([1]; No acid, 50 C., 2 MONTHS): 77.94%; Percentage Decomposition of Mesotrione ([1]; No acid, 50 C., 2 WEEKS): 35.25%; Percentage Decomposition of Mesotrione ([1]; No acid, 50 C., 3 DAYS): 11.30%; Percentage Decomposition of Mesotrione ([1]; No acid, 50 C., 3 MONTHS): 88.38%; Percentage Decomposition of Mesotrione ([1]; No acid, 50 C., 3 WEEKS): 46.31%; Percentage Decomposition of Mesotrione ([1]; No acid, −18 C., 6 MONTHS): 1.07%; Percentage Decomposition of Mesotrione ([1]; Phosphoric acid, 38 C., 1 MONTH): 3.48%; Percentage Decomposition of Mesotrione ([1]; Phosphoric acid, 38 C., 1 WEEK): 1.30%; Percentage Decomposition of Mesotrione ([1]; Phosphoric acid, 38 C., 2 MONTHS): 5.08%; Percentage Decomposition of Mesotrione ([1]; Phosphoric acid, 38 C., 2 WEEKS): 1.09%; Percentage Decomposition of Mesotrione ([1]; Phosphoric acid, 38 C., 3 MONTHS): 7.65%; Percentage Decomposition of Mesotrione ([1]; Phosphoric acid, 38 C., 3 WEEKS): 1.40%; Percentage Decomposition of Mesotrione ([1]; Phosphoric acid, 45 C., 1 MONTH): 7.12%; Percentage Decomposition of Mesotrione ([1]; Phosphoric acid, 45 C., 1 WEEK): 1.87%; Percentage Decomposition of Mesotrione ([1]; Phosphoric acid, 45 C., 2 MONTHS): 14.59%; Percentage Decomposition of Mesotrione ([1]; Phosphoric acid, 45 C., 2 WEEKS): 2.43%; Percentage Decomposition of Mesotrione ([1]; Phosphoric acid, 45 C., 3 MONTHS): 23.48%; Percentage Decomposition of Mesotrione ([1]; Phosphoric acid, 45 C., 3 WEEKS): 3.13%; Percentage Decomposition of Mesotrione ([1]; Phosphoric acid, 50 C., 1 MONTH): 16.79%; Percentage Decomposition of Mesotrione ([1]; Phosphoric acid, 50 C., 1 WEEK): 2.93%; Percentage Decomposition of Mesotrione ([1]; Phosphoric acid, 50 C., 2 MONTHS): 36.38%; Percentage Decomposition of Mesotrione ([1]; Phosphoric acid, 50 C., 2 WEEKS): 7.09%; Percentage Decomposition of Mesotrione ([1]; Phosphoric acid, 50 C., 3 DAYS): 1.77%; Percentage Decomposition of Mesotrione ([1]; Phosphoric acid, 50 C., 3 MONTHS): 58.11%; Percentage Decomposition of Mesotrione ([1]; Phosphoric acid, 50 C., 3 WEEKS): 10.85%; Percentage Decomposition of Mesotrione ([1]; Phosphoric acid, −18 C., 6 MONTHS): 0.94%; Percentage Decomposition of Mesotrione ([1]; Toluene-sulfonic acid, 38 C., 1 MONTH): 2.81%; Percentage Decomposition of Mesotrione ([1]; Toluene-sulfonic acid, 38 C., 1 WEEK): 0.75%; Percentage Decomposition of Mesotrione ([1]; Toluene-sulfonic acid, 38 C., 2 MONTHS): 4.00%; Percentage Decomposition of Mesotrione ([1]; Toluene-sulfonic acid, 38 C., 2 WEEKS): 0.78%; Percentage Decomposition of Mesotrione ([1]; Toluene-sulfonic acid, 38 C., 3 MONTHS): 2.14%; Percentage Decomposition of Mesotrione ([1]; Toluene-sulfonic acid, 38 C., 3 WEEKS): 1.74%; Percentage Decomposition of Mesotrione ([1]; Toluene-sulfonic acid, 45 C., 1 MONTH): 5.85%; Percentage Decomposition of Mesotrione ([1]; Toluene-sulfonic acid, 45 C., 1 WEEK): 1.64%; Percentage Decomposition of Mesotrione ([1]; Toluene-sulfonic acid, 45 C., 2 MONTHS): 11.08%; Percentage Decomposition of Mesotrione ([1]; Toluene-sulfonic acid, 45 C., 2 WEEKS): 3.06%; Percentage Decomposition of Mesotrione ([1]; Toluene-sulfonic acid, 45 C., 3 MONTHS): 18.29%; Percentage Decomposition of Mesotrione ([1]; Toluene-sulfonic acid, 45 C., 3 WEEKS): 4.12%; Percentage Decomposition of Mesotrione ([1]; Toluene-sulfonic acid, 50 C., 1 MONTH): 13.91%; Percentage Decomposition of Mesotrione ([1]; Toluene-sulfonic acid, 50 C., 1 WEEK): 2.32%; Percentage Decomposition of Mesotrione ([1]; Toluene-sulfonic acid, 50 C., 2 MONTHS): 28.00%; Percentage Decomposition of Mesotrione ([1]; Toluene-sulfonic acid, 50 C., 2 WEEKS): 5.94%; Percentage Decomposition of Mesotrione ([1]; Toluene-sulfonic acid, 50 C., 3 DAYS): 2.11%; Percentage Decomposition of Mesotrione ([1]; Toluene-sulfonic acid, 50 C., 3 MONTHS): 44.55%; Percentage Decomposition of Mesotrione ([1]; Toluene-sulfonic acid, 50 C., 3 WEEKS): 9.69%; Percentage Decomposition of Mesotrione ([1]; Toluene-sulfonic acid, −18 C., 6 MONTHS): 0.05%; stability of mesotrione in chloroacetamides [2]: lack of stability
